For orientation: ED50 means the dose that gives a 50% effect, or the effect in half of the subjects. One may read the inhibition in vivo as how much of the control response was suppressed. In general, IC50 refers to the concentration that inhibits the measured activity by half.

Among the data in ChEMBL document CHEMBL1208697 (Bioorg Med Chem Lett, 2010) are ED50, inhibition in vivo and IC50 values, retold here.

The subject of test [1] is Rattus norvegicus. Kind of test: Antiinflammatory activity in rat assessed as inhibition of carrageenan-induced paw edema after 3 hrs. It is filed as functional. On the technique in general: The carrageenan paw model is a standard test of acute inflammation.
In test [2] the test system is Rattus norvegicus. Kind of test: Antiinflammatory activity in rat assessed as inhibition of carrageenan-induced paw edema at 100 mg/kg, po after 3 hrs. It is filed as functional.
Test [3] addresses T1, Prostaglandin G/H synthase 1 (Ovis aries, UniProt P05979).
T1 sequence (P05979 whole entry): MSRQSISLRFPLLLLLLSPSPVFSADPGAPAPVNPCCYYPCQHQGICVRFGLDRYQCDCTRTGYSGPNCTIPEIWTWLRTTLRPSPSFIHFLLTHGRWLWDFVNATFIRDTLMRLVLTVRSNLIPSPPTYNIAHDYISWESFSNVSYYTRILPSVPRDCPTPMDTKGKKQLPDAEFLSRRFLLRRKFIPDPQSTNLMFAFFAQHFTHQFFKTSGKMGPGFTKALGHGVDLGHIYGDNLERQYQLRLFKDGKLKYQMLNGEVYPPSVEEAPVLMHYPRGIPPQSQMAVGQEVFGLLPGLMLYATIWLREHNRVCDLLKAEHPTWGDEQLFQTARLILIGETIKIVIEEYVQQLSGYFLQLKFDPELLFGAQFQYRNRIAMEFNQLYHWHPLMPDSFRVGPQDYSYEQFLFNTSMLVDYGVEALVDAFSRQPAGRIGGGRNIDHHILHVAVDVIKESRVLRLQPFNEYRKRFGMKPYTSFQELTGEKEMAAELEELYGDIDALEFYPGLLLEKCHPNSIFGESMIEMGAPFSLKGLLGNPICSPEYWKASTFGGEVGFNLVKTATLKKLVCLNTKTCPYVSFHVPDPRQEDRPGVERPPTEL
Description: Inhibition of sheep COX1 by enzyme immunoassay

In the case of `CO/N=[N+](/[O-])c1ccc(-c2cc(C(F)(F)F)nn2-c2ccc(S(N)(=O)=O)cc2)cc1`, in test [1], the ED50 stood at 241 µmol/kg. Also, in test [2], the inhibition in vivo at 100 mg/kg stood at 47.7%. In test [3], the half-inhibitory concentration (IC50) came to 12.1 µM.
With `NS(=O)(=O)c1ccc(-n2nc(C(F)(F)F)cc2-c2ccc(/[N+]([O-])=N\O)cc2)cc1`, the ED50 in test [1] is 168 µmol/kg. For the same compound, the inhibition in vivo at 100 mg/kg in test [2] worked out at 65.7%.
`CC(=O)OC(C)O/N=[N+](/[O-])c1ccc(-c2cc(C(F)(F)F)nn2-c2ccc(S(C)(=O)=O)cc2)cc1` (stereo unspecified): in test [2], the inhibition in vivo at 100 mg/kg was 5.1%. In addition, the midpoint of inhibition in test [3], the IC50, lay at 17 µM.
For `CC(=O)OC(C)O/N=[N+](/[O-])c1ccc(-c2cc(C(F)(F)F)nn2-c2ccc(S(N)(=O)=O)cc2)cc1` (stereo unspecified) the same measures were 18.6% and 11.3 µM.
The corresponding values for `CO/N=[N+](/[O-])c1ccc(-c2cc(C(F)(F)F)nn2-c2ccc(S(C)(=O)=O)cc2)cc1` are 9.8% and 10.5 µM.
